# Literature values as cited in patent publication US9133185B2, “Heteroaryl derivatives” (CHIESI FARMACEUTICI S.P.A., priority 2013, dated 2015).
# How the values were obtained:
# [1] = system: smoking model of COPD in mice
# [2] = COPD patients, 500 mg once daily, given over 12 months
# [3] = COPD patients, oral, given over 4 weeks
# [4] = patients with severe disease who have frequent exacerbations and mucus hypersecretion
smiles,measurement,setting,value
"O=C(Nc1c(Cl)cncc1Cl)c1ccc(OC(F)F)c(OCC2CC2)c1 [Roflumilast, roflumilast]",lung function,COPD patients; [2],improved lung function in COPD patients to a small extent
same,reducing exacerbations or improving quality of life,COPD patients; [2],little effect
same,CXCL8 concentrations in sputum,COPD patients; [3],significantly reduces
same,reduction of the numbers of neutrophils in sputum,COPD patients; [3],36%
same,improvement of FEV 1,COPD patients; [4],approximately 50 mL
same,reduction of exacerbation,COPD patients; [4],about 15%
same,lung inflammation and emphysema,[1],inhibits lung inflammation and emphysema
